From PMC5584945, “Evaluation of robenidine analog NCL195 as a novel broad-spectrum antibacterial agent” (PLoS ONE, 2017)
In brackets after ≈: the same amount, converted by molar mass. Where two headings read alike, the source gives them in different places.

What was measured:
S. aureus = test: MIC, broth micro-dilution (CLSI); format: cell-based, Staphylococcus aureus; settings: for MIC / MIC50 / MIC90: Staphylococcus aureus
[1] = Microsomal metabolic stability; format: in vitro ADME; settings: for microsomal CLint at 0.4 μg/ml / half-life at 0.4 μg/ml: liver microsomes, pH 7.4; for microsomal CLint at 0.4 μg/ml: read-out: CLINT; for Predicted EH: hepatic extraction ratio; for Predicted CLblood: microsome-predicted; for half-life at 0.4 μg/ml: 0.4 μg/ml compound, 0.4 mg/ml protein, NADPH
Procedure: The metabolic stability assay was performed by incubating 0.4 μg/ml of each test compound with human and mouse liver microsomes (Xenotech, Lot# 1210057 and 1310211, respectively) suspended in 0.1 M pH 7.4 phosphate buffer at 37°C and 0.4 mg/ml protein concentration. The metabolic reaction was initiated by the addition of an NADPH-regenerating system (i.e. NADPH is the cofactor required for CYP450-mediated metabolism) and quenched at various time points over a 60 min incubation period by the addition of acetonitrile containing diazepam as internal standard. Control samples (containing no NADPH) were included (and quenched at 2, 30 and 60 min) to monitor for potential degradation in the absence of cofactor. Test compound concentration vs time data were fitted to an exponential decay function to determine the first-order rate constant for substrate depletion. This was used to calculate a degradation half-life (T1/2), in vitro intrinsic clearance (CLINT), microsome-predicted blood clearance (CLblood) and a microsome-predicted hepatic extraction ratio (EH) according to the in vitro half-life method of Obach[53].

MDBK = test: In vitro cytotoxicity, WST-1; format: cell-based, bovine; settings: Bos taurus, 24 h exposure, read-out: IC50 values ± SEM
From the text: (§1) In order to ensure minimal off target mammalian cell cytotoxicity, we assayed NCL812, NCL195 and NCL219 for in vitro cytotoxicity using a panel of adherent mammalian cell lines: Caco-2 (human colorectal adenocarcinoma cell line), HEL 299 (non-cancerous human lung fibroblast cell line), Hep G2 (human hepatocellular carcinoma cell line), MDBK (normal bovine kidney cell line) and MCF7 (human mammary gland adenocarcinoma cell line). Cell lines were maintained in Dulbecco’s Modified Eagle’s Medium (DMEM; […] After 24 h incubation, media was removed, washed once with medium without antibiotics and fresh medium supplemented with 10% (vol/vol) FBS was added. […] Following exposure for 24 h, WST-1 reagent was added to each well at a final concentration of 10%. […] The IC50 value for each compound against each cell line was determined via non-linear regression (three parameters) using GraphPad Prism v6 software. The robustness of assays was confirmed with selected cell lines (Hep G2 and MDBK) seeded onto a 96–well Microwell Nunclon Delta Surface plate (Thermo Scientific Nunc; Cat No: 136101) at 5 × 10^4 cells per well.

[2] = system: Enterococcus faecalis ATCC 29212; test: MIC, broth micro-dilution (CLSI), control strain; format: cell-based
Summary of the method: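 MICs by CLSI broth micro-dilution, in duplicate, using serial two-fold dilutions starting at 128 μg/ml. Against Gram-negative species including N. meningitidis, MICs were measured with or without 0.08 mM-20 mM EDTA in a standard checkerboard. MIC50, MIC90 and range were derived per isolate set.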

S. aureus ATCC49775 = test: Membrane potential, DiOC2(3) fluorescence; format: cell-based, Staphylococcus aureus; settings: 16 μg/ml, pre-incubated 5 min; versus untreated and ampicillin
Procedure: To further examine the mechanism underlying the perturbation of the cell membrane of S. pneumoniae or S. aureus by the NCL compounds, the membrane potential of the cells was measured by fluorescence spectrometry using (DiOC2(3), essentially as described previously. Briefly, […] cells from an overnight HBA plate were grown in Todd-Hewitt broth supplemented with 1% yeast extract (THY) at 37°C, 5% CO2 until A600 nm = 0.5. […] The cuvette was then placed in a LS 55 Fluorescence Spectrometer (PerkinElmer) set at Ex. 488 nm/Em. 620 nm, with excitation and emission slit widths at 5 nm and 7 nm, respectively). […] All assays were performed at least twice.

human red blood cells = test: Haemolysis assay; format: cell-based; settings: 1 h, 37°C; highest concentration used 128 μg/ml
Procedure: This was performed using fresh donor human red blood cells (RBCs), essentially as described previously. Fresh RBCs were washed in PBS three times at 500 × g for 5 min, and then resuspended 1% (w/v) in PBS. […] Thereafter, 198 μL of the 1% RBC solution was added into each well, and the mixture incubated for 1 h at 37°C, with shaking at 100 rpm. Quadruplicate wells containing either 1% Triton X100, or PBS only, served as controls. After incubation, the trays were centrifuged at 1,000 × g for 3 min and 100 μl of supernatant from each well transferred into a new 96-well tray. Absorbance was measured at A450 nm on a Multiskan Ascent 354 Spectrophotometer (Labsystems) and plotted against each dilution. Haemolytic titer was determined as the reciprocal of the dilution at which 50% of erythrocytes were lysed at A450 nm. The experiment was performed twice.

Hep G2 = test: Real-time cell viability, RealTime-Glo MT; format: cell-based, human; settings: 2 or 8 μg/ml, up to 20 h post-treatment
[3] = system: panel of mammalian cell lines (Caco-2, HEL 299, Hep G2, MDBK, MCF7); test: In vitro cytotoxicity, WST-1, all cell lines tested; format: cell-based; settings: lower bound over all the cell lines tested
From the text: as §1

[4] = S2 Table isolates, absence of FBS

Cc1ccc(/C=N/Nc2cc(N/N=C/c3ccc(C)cc3)nc(N)n2)cc1 [NCL195, 4,6-bis(2-((E)-4-methylbenzylidene)hydrazinyl)pyrimidin-2-amine]
Fold increase of MIC range in the presence of 10% FBS (S. aureus; 10% FBS versus no FBS): 4 fold
MIC range (S. aureus; 23 isolates): 1 to 2 µg/mL
MIC range (S. aureus; S2 Table isolates, 10% FBS): 4 to 8 µg/mL
MIC range (S. aureus; [4]): 1 to 2 µg/mL
Fold increase in MIC in the presence of serum (S. aureus; S. aureus 49775, human, horse or mouse serum): 4 fold
MIC (S. aureus; ATCC 12600 / MSSA, ATCC12600 [Xen29] (MSSA), 10% FBS): 4 µg/mL (≈ 11.1 µM)
MIC (S. aureus; ATCC 12600 / MSSA, ATCC12600 [Xen29] (MSSA), absence of FBS): 1 µg/mL (≈ 2.78 µM)
MIC (S. aureus; ATCC 29213 / MSSA, ATCC29213 MSSA (ST5), 10% FBS, read-out: MIC): 8 µg/mL (≈ 22.3 µM)
MIC (S. aureus; ATCC 29213 / MSSA, ATCC29213 MSSA (ST5), absence of FBS, read-out: MIC): 2 µg/mL (≈ 5.56 µM)
MIC (S. aureus; ATCC 49775 / MSSA, ATCC 49775 (MSSA), 10% FBS, read-out: MIC): 8 µg/mL (≈ 22.3 µM)
MIC (S. aureus; ATCC 49775 / MSSA, ATCC 49775 (MSSA), absence of FBS, read-out: MIC): 2 µg/mL (≈ 5.56 µM)
MIC (S. aureus; IRISH 1 – HA-EMRSA (ST8), 10% FBS, read-out: MIC): 8 µg/mL (≈ 22.3 µM)
MIC (S. aureus; IRISH 1 – HA-EMRSA (ST8), absence of FBS, read-out: MIC): 2 µg/mL (≈ 5.56 µM)
MIC (S. aureus; IRISH 2 – HA-EMRSA (ST8), 10% FBS, read-out: MIC): 4 µg/mL (≈ 11.1 µM)
MIC (S. aureus; IRISH 2 – HA-EMRSA (ST8), absence of FBS, read-out: MIC): 1 µg/mL (≈ 2.78 µM)
MIC (S. aureus; MRSA / USA300, USA 300 - MRSA (ST8), 10% FBS, read-out: MIC): 8 µg/mL (≈ 22.3 µM)
MIC (S. aureus; MRSA / USA300, USA 300 - MRSA (ST8), absence of FBS, read-out: MIC): 2 µg/mL (≈ 5.56 µM)
MIC (S. aureus; MRSA, AUS2-MRSA (ST239), 10% FBS, read-out: MIC): 8 µg/mL (≈ 22.3 µM)
MIC (S. aureus; MRSA, AUS2-MRSA (ST239), absence of FBS, read-out: MIC): 2 µg/mL (≈ 5.56 µM)
MIC (S. aureus; MRSA, AUS3-MRSA (ST239), 10% FBS, read-out: MIC): 4 µg/mL (≈ 11.1 µM)
MIC (S. aureus; MRSA, AUS3-MRSA (ST239), absence of FBS, read-out: MIC): 1 µg/mL (≈ 2.78 µM)
MIC (S. aureus; MRSA, Classic–HA-MRSA (ST250), 10% FBS, read-out: MIC): 8 µg/mL (≈ 22.3 µM)
MIC (S. aureus; MRSA, Classic–HA-MRSA (ST250), absence of FBS, read-out: MIC): 2 µg/mL (≈ 5.56 µM)
MIC (S. aureus; MRSA, NY JAPAN – HA MRSA (ST5), 10% FBS, read-out: MIC): 4 µg/mL (≈ 11.1 µM)
MIC (S. aureus; MRSA, NY JAPAN – HA MRSA (ST5), absence of FBS, read-out: MIC): 1 µg/mL (≈ 2.78 µM)
MIC (S. aureus; MRSA, ST398–CA-MRSA-V (ST398), 10% FBS, read-out: MIC): 8 µg/mL (≈ 22.3 µM)
MIC (S. aureus; MRSA, ST398–CA-MRSA-V (ST398), absence of FBS, read-out: MIC): 2 µg/mL (≈ 5.56 µM)
MIC (S. aureus; MRSA, WA2–CA-MRSA (ST78), 10% FBS, read-out: MIC): 4 µg/mL (≈ 11.1 µM)
MIC (S. aureus; MRSA, WA2–CA-MRSA (ST78), absence of FBS, read-out: MIC): 1 µg/mL (≈ 2.78 µM)
MIC (S. aureus; MRSA, WA3–CA-MRSA (ST5), 10% FBS, read-out: MIC): 4 µg/mL (≈ 11.1 µM)
MIC (S. aureus; MRSA, WA3–CA-MRSA (ST5), absence of FBS, read-out: MIC): 1 µg/mL (≈ 2.78 µM)
MIC (S. aureus; MRSA, WA84–CA-MRSA (ST45), 10% FBS, read-out: MIC): 4 µg/mL (≈ 11.1 µM)
MIC (S. aureus; MRSA, WA84–CA-MRSA (ST45), absence of FBS, read-out: MIC): 1 µg/mL (≈ 2.78 µM)
MIC50 (S. aureus; S2 Table isolates, 10% FBS): 8 µg/mL (≈ 22.3 µM)
MIC90 (S. aureus; S2 Table isolates, 10% FBS): 8 µg/mL (≈ 22.3 µM)
MIC50 (S. aureus; [4]): 2 µg/mL (≈ 5.56 µM)
MIC90 (S. aureus; [4]): 2 µg/mL (≈ 5.56 µM)
MIC (S. aureus; TAIWAN PVL+ – CA-cMRSA (ST59), 10% FBS, read-out: MIC): 4 µg/mL (≈ 11.1 µM)
MIC (S. aureus; TAIWAN PVL+ – CA-cMRSA (ST59), absence of FBS, read-out: MIC): 1 µg/mL (≈ 2.78 µM)
MIC (S. aureus; UK 15 PVL+ – HA-EMRSA (ST22), 10% FBS, read-out: MIC): 8 µg/mL (≈ 22.3 µM)
MIC (S. aureus; UK 15 PVL+ – HA-EMRSA (ST22), absence of FBS, read-out: MIC): 2 µg/mL (≈ 5.56 µM)
MIC (S. aureus; UK 15 – HA-EMRSA (ST22), 10% FBS, read-out: MIC): 8 µg/mL (≈ 22.3 µM)
MIC (S. aureus; UK 15 – HA-EMRSA (ST22), absence of FBS, read-out: MIC): 2 µg/mL (≈ 5.56 µM)
MIC (S. aureus; UK 16 – HA- EMRSA (ST36), 10% FBS, read-out: MIC): 4 µg/mL (≈ 11.1 µM)
MIC (S. aureus; UK 16 – HA- EMRSA (ST36), absence of FBS, read-out: MIC): 1 µg/mL (≈ 2.78 µM)
MIC (S. aureus; UK 17 – HA-EMRSA (ST247), 10% FBS, read-out: MIC): 8 µg/mL (≈ 22.3 µM)
MIC (S. aureus; UK 17 – HA-EMRSA (ST247), absence of FBS, read-out: MIC): 2 µg/mL (≈ 5.56 µM)
microsomal CLint at 0.4 μg/ml ([1]; human): < 7 µL/min/mg
Predicted EH ([1]; human): <0.22
Predicted CLblood ([1]; human): <5 mL/min/kg
half-life at 0.4 μg/ml ([1]; human): > 247 min
half-life at 0.4 μg/ml ([1]; mouse): > 247 min
microsomal CLint at 0.4 μg/ml ([1]; mouse): < 7 µL/min/mg
Predicted EH ([1]; mouse): <0.13
Predicted CLblood ([1]; mouse): <16 mL/min/kg
IC50 (MDBK): 17.3 ± 0.2 µg/mL (≈ 48.1 µM)
MIC ([2]; ATCC29212, 10% FBS): 32 µg/mL
MIC ([2]; ATCC29212, absence of FBS): 4 µg/mL
Effect on generated membrane potential (S. aureus ATCC49775): large reduction in the magnitude of the generated membrane potential
50% haemolysis titre (HC50) (human red blood cells): > 128 µg/mL
Effect on cell viability (real-time) (Hep G2): no measurable effect on cell viability
IC50 [3]: > 10 µg/mL
